Assay results as given in patent US20260008750A1, “COMPOUNDS, COMPOSITIONS, AND METHODS FOR REDUCING PRODUCTION OF TRIMETHYLAMINE” (The Cleveland Clinic Foundation, priority 2022, published 2026).
Counter-ions that a name gives are not always drawn.

Target: recombinant CutC/D (choline TMA lyase) (Proteus mirabilis, UniProt B4EYG1)
Assay: Choline TMA lyase enzymatic activity assay (d9-choline to d9-TMA) in clarified lysate
Assay type: biochemical, P. mirabilis
Details: clarified lysate 5 mg/mL of E. coli expressing cutC/cutD; 300 μM d9-choline; 2 hours at 22° C.; d9-TMA by mass spectrometry
Protocol: Full-length, recombinant CutC/D was expressed through the use of competent E. coli cells transformed with the expression plasmids encoding for the cutC and cutD genes from P. mirabilis as described (Wang Z et al., Cell 2015 Dec. 17; 163(7):1585-95). CutC/D over-expressing cells were grown in nutrient-rich LB medium with the addition of ampicillin (100 μg/mL). The cell pellets were kept on ice and re-suspended in the lysis buffer: 200 mM HEPES, 50 mM NaCl, 10 mM MgCl2, pH 8.0. Clarified lysate was aliquoted and flash frozen for storage at −80° C. until use.
Choline TMA lyase enzymatic activity assays were conducted to measure the conversion of isotope-labeled do-choline to do-TMA. Upon thawing an aliquot of frozen clarified lysate on ice and gentle mixing, clarified lysate was diluted to 5 mg/mL in lysis buffer and the necessary co-factors were added (final concentration: 1 mM SAM, 10 mM NaDT, and 2 mM NADH). Potential inhibitor compounds (typically dissolved in H2O) were serially diluted (10-fold) and added to individual reaction mixtures (done in triplicate). The mixture was then allowed to incubate for at least 15 minutes at 22° C. before the addition of substrate (300 μM final do-choline) to initiate the reaction, which was carried out for 2 hours at room temperature (22° C.) in the dark in gas tight sealed reaction vials. The reactions were quenched with the addition of 200 μL of 1 M NaOH and 0.5 μM of the internal standard ([^13C3^15N1]TMA), vortexing and placement in ice. d9-TMA production was quantified using mass spectrometry by measuring the peak area ratio of the precursor to product ion transition of d9-TMA (m/z 69→49) to the internal standard [^13C3^15N1]TMA (m/z 64→47).

Chain of recombinant CutC/D (choline TMA lyase) (B4EYG1 1-1142): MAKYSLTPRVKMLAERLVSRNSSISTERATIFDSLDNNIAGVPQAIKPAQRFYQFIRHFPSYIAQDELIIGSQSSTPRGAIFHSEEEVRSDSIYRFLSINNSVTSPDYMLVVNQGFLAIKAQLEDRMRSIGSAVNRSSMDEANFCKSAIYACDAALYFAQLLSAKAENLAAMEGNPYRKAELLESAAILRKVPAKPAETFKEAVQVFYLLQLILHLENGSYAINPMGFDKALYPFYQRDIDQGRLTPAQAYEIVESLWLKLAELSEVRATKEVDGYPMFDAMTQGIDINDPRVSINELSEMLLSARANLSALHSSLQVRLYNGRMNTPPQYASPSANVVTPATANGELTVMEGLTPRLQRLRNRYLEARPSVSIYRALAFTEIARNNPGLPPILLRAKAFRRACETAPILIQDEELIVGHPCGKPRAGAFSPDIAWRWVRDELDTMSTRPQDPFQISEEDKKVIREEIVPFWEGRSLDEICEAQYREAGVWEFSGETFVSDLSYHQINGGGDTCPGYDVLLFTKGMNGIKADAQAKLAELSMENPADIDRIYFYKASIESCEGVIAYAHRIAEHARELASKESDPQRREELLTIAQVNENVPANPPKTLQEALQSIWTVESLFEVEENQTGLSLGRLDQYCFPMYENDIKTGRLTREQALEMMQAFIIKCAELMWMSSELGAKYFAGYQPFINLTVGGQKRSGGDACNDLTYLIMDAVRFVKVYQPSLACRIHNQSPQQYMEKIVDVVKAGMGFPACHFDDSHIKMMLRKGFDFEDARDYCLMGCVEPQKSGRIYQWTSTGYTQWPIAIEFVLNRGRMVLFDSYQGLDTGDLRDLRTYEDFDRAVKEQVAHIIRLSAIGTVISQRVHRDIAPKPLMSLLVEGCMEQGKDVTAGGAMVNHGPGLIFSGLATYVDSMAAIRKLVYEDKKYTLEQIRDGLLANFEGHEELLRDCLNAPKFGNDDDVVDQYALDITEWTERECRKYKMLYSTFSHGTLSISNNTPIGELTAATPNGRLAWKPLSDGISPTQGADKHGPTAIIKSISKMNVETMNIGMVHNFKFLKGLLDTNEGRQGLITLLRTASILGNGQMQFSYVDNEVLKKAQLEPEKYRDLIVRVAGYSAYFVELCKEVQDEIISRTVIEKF

First: C[N+](C)(CF)CCOC(=O)CN [Compound 1, 2-(2-Aminoacetoxy)-N-(fluoromethyl)-N,N-dimethylethanaminium dibromide]
Second: C[C@H](N)C(=O)OCC[N+](C)(C)CF [Compound 3, (S)-2-((2-Aminopropanoyl)oxy)-N-(fluoromethyl)-N,N-dimethylethanaminium dibromide]
The IC50 of the first is 9.7-fold lower: 3.2 nM for the first, 31 nM for the second. The first is the more potent here.

Compared with `CC(C)[C@H](N)C(=O)OCC[N+](C)(C)CF` [Compound 2, (S)-2-((2-Amino-3-methylbutanoyl)oxy)-N-(fluoromethyl)-N,N-dimethylethanaminium dibromide], `C[N+](C)(CF)CCOC(=O)[C@@H](N)Cc1ccccc1` [Compound 6, 2-((L-phenylalanyl)oxy)-N-(fluoromethyl)-N,N-dimethylethan-1-aminium dibromide] is 2.9-fold lower in IC50: 52 nM for the first, 18 nM for the second.

`C[N+](C)(CF)CCOC(=O)[C@@H]1CCCN1` [Compound 5, N-(fluoromethyl)-N,N-dimethyl-2-(prolyloxy)ethan-1-aminium chloride hydrochloride] showed an IC50 of 6.5 nM.
